The record followed here is patent publication US8796031B2, “Microchip for platelet examination and platelet examination device using same” (Fujimori Kogyo Co., Ltd., priority 2010, dated 2014).

The structures appear in SMILES notation.

The experiment relates to platelet aggregates. As to the kind of experiment: Platelet function test: inflow pressure of blood through collagen-coated microchip with plasma-treated channel dividing section (Test Example 3). The experiment is classed as ex vivo. To be noted: blood collected before and after dosing of 100 mg of aspirin, hirudin 25 μg/ml anticoagulation, flow rate 27 μl/minute or 9 μl/minute. Here is the method: Blood was collected from a sample before and after dosing of 100 mg of aspirin, and each obtained blood was subjected to anticoagulation treatment with hirudin (25 μg/ml). The anticoagulated blood was subjected to flow through the channel of a microchip having a plasma-treated channel dividing section. More particularly, the reservoir 109 was filled with anticoagulated blood (before and after dosing of 100 mg of aspirin), and the pump 111 was filled with mineral oil. The pump 111 was connected to the reservoir 109, and a tip of the reservoir 109 was connected to the inlet 106 of the microchip 1. By injecting mineral oil from the pump 111 at a flow rate of 27 μl/minute or 9 μl/minute into the reservoir to overlay the mineral oil on the blood, the blood in the reservoir was pushed into the microchip 1 at the same flow rate, while the inflow pressure of the mineral oil (that is, the inflow pressure of the blood) was measured with a pressure sensor which is not shown.
In the case where the microchip having a plasma-untreated channel dividing section was used, the pressure increase was insufficient and the effect of aspirin could be therefore hardly identified. […]
Thus, the plasma irradiation increased the pressure to a higher level, and the stability of platelet aggregates under high-flow-rate conditions could be analyzed more accurately.

As to `CC(=O)Oc1ccccc1C(=O)O` [aspirin], the “effect of aspirin on platelet aggregation (inflow pressure of blood)” value is given as “decrease the stability of formed platelet aggregates rather than an effect to decrease the formation rate of platelet aggregates”.
